Source: US11814367B2, “Inhibitors of glycogen synthase 1 (GYS1) and methods of use thereof” (Maze Therapeutics, Inc., priority 2021, dated 2023)

Key:
[1] = tested on: hGYS1 enzyme / glycogen synthesis in HeLa cells; experiment: GYS1 cell based assay (glycogen synthesis, Glucose-glo); set-up: species or system human; conditions: Homo sapiens, HeLa, 24 h, 24 h incubation, 20 mM glucose, geometric mean of at least 2 runs
Method in brief: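 HeLa cells starved 24 h in medium containing only 1× Glutamax were plated onto compound in medium with 20 mM glucose (1% DMSO final) for 24 h, 37 °C, 5% CO2. Acid lysates were Tris-quenched, glucoamylase-digested (pH 5.3, 1 h, 37 °C) and read by Glucose-glo luminescence. IC50 came from Hill fits, as geometric mean of ≥2 runs.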

[2] = target: hGYS2 enzyme (recombinant hGYS2/GN1 protein) (Homo sapiens (Human), UniProt P54840); experiment: GYS2 coupled enzyme assay (PK/LDH); type: biochemical; conditions: geometric mean of at least 2 assay runs on separate days, read-out: Avg_IC50
hGYS2 enzyme (recombinant hGYS2/GN1 protein), sequence (P54840 whole entry): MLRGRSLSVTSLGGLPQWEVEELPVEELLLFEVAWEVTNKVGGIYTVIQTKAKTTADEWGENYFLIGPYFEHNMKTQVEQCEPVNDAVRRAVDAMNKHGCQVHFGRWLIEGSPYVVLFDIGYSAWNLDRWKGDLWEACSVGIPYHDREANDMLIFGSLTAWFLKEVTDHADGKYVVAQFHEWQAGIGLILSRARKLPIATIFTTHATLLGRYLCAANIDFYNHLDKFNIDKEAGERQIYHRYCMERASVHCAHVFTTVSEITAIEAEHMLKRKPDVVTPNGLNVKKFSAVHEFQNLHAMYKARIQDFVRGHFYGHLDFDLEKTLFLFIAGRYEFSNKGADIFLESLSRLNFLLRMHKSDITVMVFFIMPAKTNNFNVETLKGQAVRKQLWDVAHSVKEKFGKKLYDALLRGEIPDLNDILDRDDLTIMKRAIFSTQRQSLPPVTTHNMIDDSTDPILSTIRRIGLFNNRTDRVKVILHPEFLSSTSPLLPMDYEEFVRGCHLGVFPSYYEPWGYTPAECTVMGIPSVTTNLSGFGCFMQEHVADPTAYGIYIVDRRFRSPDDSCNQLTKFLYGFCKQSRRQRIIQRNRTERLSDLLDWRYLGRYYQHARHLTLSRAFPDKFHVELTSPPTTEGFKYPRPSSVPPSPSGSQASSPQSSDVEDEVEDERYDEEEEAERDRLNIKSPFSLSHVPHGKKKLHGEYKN
hGYS2 enzyme (recombinant hGYS2/GN1 protein), sequence (P46976 whole entry partner): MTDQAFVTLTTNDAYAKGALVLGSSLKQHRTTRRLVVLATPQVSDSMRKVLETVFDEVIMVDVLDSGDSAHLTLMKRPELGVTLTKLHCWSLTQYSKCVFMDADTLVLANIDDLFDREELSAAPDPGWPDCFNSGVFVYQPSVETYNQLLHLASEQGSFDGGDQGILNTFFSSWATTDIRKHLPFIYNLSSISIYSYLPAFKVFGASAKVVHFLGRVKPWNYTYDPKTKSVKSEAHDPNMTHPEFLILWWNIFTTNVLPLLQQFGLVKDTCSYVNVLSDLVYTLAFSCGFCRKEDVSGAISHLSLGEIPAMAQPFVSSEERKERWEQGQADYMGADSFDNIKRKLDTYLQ
Method in brief: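 Continuous PK/LDH-coupled readout of NADH loss at 340 nm over 10 min, with 200 nM hGYS2/GN1 and 2 mM each of UDP-glucose, glucose-6-phosphate and PEP, in 50 mM Tris pH 7.5 with 0.2% glycogen and 2.5% DMSO. Slopes were normalized to controls and IC50s fit to a Hill curve from duplicates.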

[3] = target: hGYS1 enzyme (recombinant hGYS1/GN1 protein) (Homo sapiens (Human), UniProt P13807); experiment: GYS1 coupled enzyme assay (PK/LDH); type: biochemical; conditions: hGYS1/GN1 50 nM, UDP-Glucose 0.8 mM, G6P 1 mM; geometric mean of at least 2 runs
hGYS1 enzyme (recombinant hGYS1/GN1 protein), sequence (P13807 whole entry): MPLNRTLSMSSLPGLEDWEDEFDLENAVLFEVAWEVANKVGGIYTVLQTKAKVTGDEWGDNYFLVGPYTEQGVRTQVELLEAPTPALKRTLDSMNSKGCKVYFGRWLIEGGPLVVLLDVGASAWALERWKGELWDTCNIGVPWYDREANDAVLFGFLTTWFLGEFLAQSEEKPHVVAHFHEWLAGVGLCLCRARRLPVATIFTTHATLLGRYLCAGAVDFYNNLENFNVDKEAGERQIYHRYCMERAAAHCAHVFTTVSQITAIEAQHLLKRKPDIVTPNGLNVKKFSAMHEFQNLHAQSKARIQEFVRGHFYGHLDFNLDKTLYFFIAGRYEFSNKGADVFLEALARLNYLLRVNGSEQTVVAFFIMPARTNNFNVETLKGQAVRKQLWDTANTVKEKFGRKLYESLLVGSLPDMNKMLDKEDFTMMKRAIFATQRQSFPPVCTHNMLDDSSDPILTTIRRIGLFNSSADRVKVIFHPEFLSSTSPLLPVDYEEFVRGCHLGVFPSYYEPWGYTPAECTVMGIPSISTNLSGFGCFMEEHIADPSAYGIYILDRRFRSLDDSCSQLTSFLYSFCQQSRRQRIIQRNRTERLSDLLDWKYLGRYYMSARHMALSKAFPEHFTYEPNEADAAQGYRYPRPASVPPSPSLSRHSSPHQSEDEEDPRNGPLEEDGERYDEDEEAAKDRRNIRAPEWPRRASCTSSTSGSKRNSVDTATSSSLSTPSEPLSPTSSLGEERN
hGYS1 enzyme (recombinant hGYS1/GN1 protein), sequence (P46976 whole entry partner): as the sequence (P46976 whole entry partner) above

Row | IC50 [1] [nM] | IC50 [2] [nM] | IC50 [3] [nM] | SMILES
1 | 7070 | > 100000 | 685 | CC1(c2ccc([C@@H](NC(=O)[C@@H]3C[C@@H](F)CN3C(=O)CN3CCNCC3=O)c3ccccc3)cc2F)CC1 [Compound 562, (2S,4R)-4-fluoro-N-[(S)-[3-fluoro-4-(1-methylcyclopropyl)phenyl](phenyl)methyl]-1-[2-(2-oxopiperazin-1-yl)acetyl]pyrrolidine-2-carboxamide]
2 | 780 | > 100000 | 63 | Cn1cc(CC(=O)N2C[C@H](F)C[C@H]2C(=O)N[C@@H](c2ccccc2)c2ccc(C3(C)CC3)c(F)c2)c2ccccc21 [Compound 563, (2S,4R)-4-fluoro-N-[(S)-[3-fluoro-4-(1-methylcyclopropyl)phenyl](phenyl)methyl]-1-[2-(1-methyl-1H-indol-3-yl)acetyl]pyrrolidine-2-carboxamide]
3 | 790 | > 100000 | 56 | Cn1nc(CC(=O)N2C[C@H](F)C[C@H]2C(=O)N[C@@H](c2ccccc2)c2ccc(C3(C)CC3)c(F)c2)c2ccccc21 [Compound 564, (2S,4R)-4-fluoro-N-[(S)-[3-fluoro-4-(1-methylcyclopropyl)phenyl](phenyl)methyl]-1-[2-(1-methyl-1H-indazol-3-yl)acetyl]pyrrolidine-2-carboxamide]
4 | 1210 | > 100000 | 48 | CC1(c2ccc([C@@H](NC(=O)[C@@H]3C[C@@H](F)CN3C(=O)CNC(=O)N3CCOCC3)c3ccccc3)cc2F)CC1 [Compound 565, N-{2-[(2S,4R)-4-fluoro-2-{[(S)-[3-fluoro-4-(1-methylcyclopropyl)phenyl](phenyl)methyl]carbamoyl}pyrrolidin-1-yl]-2-oxoethyl}morpholine-4-carboxamide]
5 | 770 | > 100000 | 46 | Cc1nc2ccccc2n1CC(=O)N1C[C@H](F)C[C@H]1C(=O)N[C@@H](c1ccccc1)c1ccc(C2(C)CC2)c(F)c1 [Compound 566, (2S,4R)-4-fluoro-N-[(S)-[3-fluoro-4-(1-methylcyclopropyl)phenyl](phenyl)methyl]-1-[2-(2-methyl-1H-1,3-benzodiazol-1-yl)acetyl]pyrrolidine-2-carboxamide]
6 | 960 | 94200 | 89 | Cn1c(=O)n(CC(=O)N2C[C@H](F)C[C@H]2C(=O)N[C@@H](c2ccccc2)c2ccc(C3(C)CC3)c(F)c2)c2ccccc21 [Compound 568, (2S,4R)-4-fluoro-N-[(S)-[3-fluoro-4-(1-methylcyclopropyl)phenyl](phenyl)methyl]-1-[2-(3-methyl-2-oxo-2,3-dihydro-1H-1,3-benzodiazol-1-yl)acetyl]pyrrolidine-2-carboxamide]
7 | 960 | > 100000 | 66 | Cn1c(=O)ccn(CC(=O)N2C[C@H](F)C[C@H]2C(=O)N[C@@H](c2ccccc2)c2ccc(C3(C)CC3)c(F)c2)c1=O [Compound 569, (2S,4R)-4-fluoro-N-[(S)-[3-fluoro-4-(1-methylcyclopropyl)phenyl](phenyl)methyl]-1-[2-(3-methyl-2,4-dioxo-1,2,3,4-tetrahydropyrimidin-1-yl)acetyl]pyrrolidine-2-carboxamide]
8 | 1220 | > 100000 | 82 | CC1(c2ccc([C@@H](NC(=O)[C@@H]3C[C@@H](F)CN3C(=O)Cn3c(=O)[nH]c4ccccc43)c3ccccc3)cc2F)CC1 [Compound 570, (2S,4R)-4-fluoro-N-[(S)-[3-fluoro-4-(1-methylcyclopropyl)phenyl](phenyl)methyl]-1-[2-(2-oxo-2,3-dihydro-1H-1,3-benzodiazol-1-yl)acetyl]pyrrolidine-2-carboxamide]
9 | 930 | > 100000 | 75 | CC1(c2ccc([C@@H](NC(=O)[C@@H]3C[C@@H](F)CN3C(=O)Cc3n[nH]c4ccccc34)c3ccccc3)cc2F)CC1 [Compound 571, (2S,4R)-4-fluoro-N-[(S)-[3-fluoro-4-(1-methylcyclopropyl)phenyl](phenyl)methyl]-1-[2-(1H-indazol-3-yl)acetyl]pyrrolidine-2-carboxamide]
10 | 3600 | > 100000 | 205 | CC1(c2ccc([C@@H](NC(=O)[C@@H]3C[C@@H](F)CN3C(=O)CN3CC(=O)NCC3=O)c3ccccc3)cc2F)CC1 [Compound 572, (2S,4R)-1-[2-(2,5-dioxopiperazin-1-yl)acetyl]-4-fluoro-N-[(S)-[3-fluoro-4-(1-methylcyclopropyl)phenyl](phenyl)methyl]pyrrolidine-2-carboxamide]
11 | 1660 | > 100000 | 178 | CC1(c2ccc([C@@H](NC(=O)[C@@H]3C[C@@H](F)CN3C(=O)CN3Cc4ccccc4C3=O)c3ccccc3)cc2F)CC1 [Compound 573, (2S,4R)-4-fluoro-N-[(S)-[3-fluoro-4-(1-methylcyclopropyl)phenyl](phenyl)methyl]-1-[2-(1-oxo-2,3-dihydro-1H-isoindol-2-yl)acetyl]pyrrolidine-2-carboxamide]
12 | 2090 | > 100000 | 119 | CC1(c2ccc([C@@H](NC(=O)[C@@H]3C[C@@H](F)CN3C(=O)Cn3nnc4ccccc43)c3ccccc3)cc2F)CC1 [Compound 575, (2S,4R)-1-[2-(1H-1,2,3-benzotriazol-1-yl)acetyl]-4-fluoro-N-[(S)-[3-fluoro-4-(1-methylcyclopropyl)phenyl](phenyl)methyl]pyrrolidine-2-carboxamide]
13 | 1800 | > 100000 | 85 | CC1(c2ccc([C@@H](NC(=O)[C@@H]3C[C@@H](F)CN3C(=O)CN3C(=O)Cc4ccccc43)c3ccccc3)cc2F)CC1 [Compound 576, (2S,4R)-4-fluoro-N-[(S)-[3-fluoro-4-(1-methylcyclopropyl)phenyl](phenyl)methyl]-1-[2-(2-oxo-2,3-dihydro-1H-indol-1-yl)acetyl]pyrrolidine-2-carboxamide]
14 | 3980 | 41200 | 478 | CN1C(=O)C(CC(=O)N2C[C@H](F)C[C@H]2C(=O)N[C@@H](c2ccccc2)c2ccc(C3(C)CC3)c(F)c2)c2ccccc21 (stereo partly drawn) [Compound 577, (2S,4R)-4-fluoro-N-[(S)-[3-fluoro-4-(1-methylcyclopropyl)phenyl](phenyl)methyl]-1-[2-(1-methyl-2-oxo-2,3-dihydro-1H-indol-3-yl)acetyl]pyrrolidine-2-carboxamide]
15 | 6660 | 79300 | 613 | CC1(c2ccc([C@@H](NC(=O)[C@@H]3C[C@@H](F)CN3C(=O)CN3CCN(C(=O)OCC(F)(F)F)CC3=O)c3ccccc3)cc2F)CC1 [Compound 578, 2,2,2-trifluoroethyl 4-{2-[(2S,4R)-4-fluoro-2-{[(S)-[3-fluoro-4-(1-methylcyclopropyl)phenyl](phenyl)methyl]carbamoyl}pyrrolidin-1-yl]-2-oxoethyl}-3-oxopiperazine-1-carboxylate]
16 | 1830 | > 100000 | 59 | COCCN1CCN(C(=O)OCC(=O)N2C[C@H](F)C[C@H]2C(=O)N[C@@H](c2ccccc2)c2ccc(C3(C)CC3)c(F)c2)CC1 [Compound 579, 2-[(2S,4R)-4-fluoro-2-{[(S)-[3-fluoro-4-(1-methylcyclopropyl)phenyl](phenyl)methyl]carbamoyl}pyrrolidin-1-yl]-2-oxoethyl 4-(2-methoxyethyl) piperazine-1-carboxylate]
17 | 4270 | > 100000 | 249 | CC1(c2ccc([C@@H](NC(=O)[C@@H]3C[C@@H](F)CN3C(=O)CN3CCN(CC(F)(F)F)CC3=O)c3ccccc3)cc2F)CC1 [Compound 580, (2S,4R)-4-fluoro-N-[(S)-[3-fluoro-4-(1-methylcyclopropyl)phenyl](phenyl)methyl]-1-{2-[2-oxo-4-(2,2,2-trifluoroethyl)piperazin-1-yl]acetyl}pyrrolidine-2-carboxamide]
18 | 3920 | > 100000 | 269 | CC1(c2ccc([C@@H](NC(=O)[C@@H]3C[C@@H](F)CN3C(=O)CC3C(=O)Nc4ccccc43)c3ccccc3)cc2F)CC1 (stereo partly drawn) [Compound 581, (2S,4R)-4-fluoro-N-[(S)-[3-fluoro-4-(1-methylcyclopropyl)phenyl](phenyl)methyl]-1-[2-(2-oxo-2,3-dihydro-1H-indol-3-yl)acetyl]pyrrolidine-2-carboxamide]
19 | 8080 | > 100000 | 319 | CC1(c2ccc([C@@H](NC(=O)[C@@H]3C[C@@H](F)CN3C(=O)Cn3cnnc3)c3ccccc3)cc2F)CC1 [Compound 582, (2S,4R)-4-fluoro-N-[(S)-[3-fluoro-4-(1-methylcyclopropyl)phenyl](phenyl)methyl]-1-[2-(4H-1,2,4-triazol-4-yl)acetyl]pyrrolidine-2-carboxamide]
20 | 1640 | > 100000 | 105 | CN1CCN(C(=O)OCC(=O)N2C[C@H](F)C[C@H]2C(=O)N[C@@H](c2ccccc2)c2ccc(C3(C)CC3)c(F)c2)CC1 [Compound 583, 2-[(2S,4R)-4-fluoro-2-{[(S)-[3-fluoro-4-(1-methylcyclopropyl)phenyl](phenyl)methyl]carbamoyl}pyrrolidin-1-yl]-2-oxoethyl 4-methylpiperazine-1-carboxylate]
